# Values of other authors, collected in patent publication US6846831B2, “Method of treating the syndrome of lipodystrophy” (CPD, LLC, priority 2000, dated 2005).
# pIC50: −log10 of the molar value.
# Assays:
# [1] = biological target: μ opioid receptor (Rattus norvegicus, UniProt P33535); conditions: read-out: μ IC50; homogenates of rat brain minus cerebellum; prototype ligand DHM
# [2] = biological target: δ opioid receptor (Rattus norvegicus, UniProt P33533); conditions: read-out: δ IC50; homogenates of rat brain minus cerebellum; prototype ligand DADLE
# [3] = biological target: κ opioid receptor (Rattus norvegicus, UniProt P34975); conditions: read-out: κ IC50; homogenates of rat brain minus cerebellum; prototype ligand EKC
# κ opioid receptor, sequence (P34975 whole entry): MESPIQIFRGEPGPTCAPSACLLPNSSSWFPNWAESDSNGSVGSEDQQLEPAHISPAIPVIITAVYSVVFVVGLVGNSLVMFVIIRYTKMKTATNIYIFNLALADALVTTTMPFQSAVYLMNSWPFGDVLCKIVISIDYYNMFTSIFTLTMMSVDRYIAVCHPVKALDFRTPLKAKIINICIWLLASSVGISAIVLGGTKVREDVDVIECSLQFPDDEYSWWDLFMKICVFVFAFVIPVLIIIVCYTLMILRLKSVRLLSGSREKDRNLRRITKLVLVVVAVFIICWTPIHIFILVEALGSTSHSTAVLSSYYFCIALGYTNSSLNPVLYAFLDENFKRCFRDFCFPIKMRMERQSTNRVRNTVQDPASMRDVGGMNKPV
# μ opioid receptor, sequence (P33535 whole entry): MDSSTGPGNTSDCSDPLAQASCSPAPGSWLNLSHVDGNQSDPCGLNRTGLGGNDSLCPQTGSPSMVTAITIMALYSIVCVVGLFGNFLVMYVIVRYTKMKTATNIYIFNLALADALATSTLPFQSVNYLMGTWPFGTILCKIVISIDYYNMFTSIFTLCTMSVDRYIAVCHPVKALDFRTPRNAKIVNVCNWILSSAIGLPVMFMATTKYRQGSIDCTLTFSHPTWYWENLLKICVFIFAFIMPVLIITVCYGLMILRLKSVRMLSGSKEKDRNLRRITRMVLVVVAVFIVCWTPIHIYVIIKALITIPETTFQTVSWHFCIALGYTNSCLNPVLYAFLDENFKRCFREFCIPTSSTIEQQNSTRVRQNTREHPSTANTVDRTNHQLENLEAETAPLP
# δ opioid receptor, sequence (P33533 whole entry): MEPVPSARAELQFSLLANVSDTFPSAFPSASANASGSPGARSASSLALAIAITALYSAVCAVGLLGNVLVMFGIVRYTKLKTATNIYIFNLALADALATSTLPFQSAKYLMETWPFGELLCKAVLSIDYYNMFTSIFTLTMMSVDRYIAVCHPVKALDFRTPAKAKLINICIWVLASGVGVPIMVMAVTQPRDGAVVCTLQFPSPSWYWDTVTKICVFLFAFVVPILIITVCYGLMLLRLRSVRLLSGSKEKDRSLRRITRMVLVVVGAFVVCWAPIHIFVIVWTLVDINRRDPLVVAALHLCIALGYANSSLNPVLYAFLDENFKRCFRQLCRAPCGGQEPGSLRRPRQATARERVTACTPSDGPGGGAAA
smiles,measurement,setting,value
C=C1CC[C@@]2(O)[C@H]3Cc4ccc(O)c5c4[C@@]2(CCN3CC2CC2)[C@H]1O5 [Nalmefene],pIC50,[1],9.00
same,pIC50,[2],8.21
same,pIC50,[3],8.28
